Data: patent US20250109139A1, “TRICYCLIC COMPOUND, AND PREPARATION METHOD THEREFOR AND USE THEREOF” (SHANGHAITECH UNIVERSITY, priority 2022, published 2025)
Read-outs that look alike come from different tables or passages of the source. Values belong to the compound of their own block, whether it stands above or below them.

How the values were obtained:
dopamine D2 receptors [1] = molecular target: T1, dopamine D2 receptors (Homo sapiens (Human), UniProt P14416); assay: Dopamine D2 receptor radioligand competition binding assay ([3H]-Methylspiperone); details: [3H]-Methylspiperone 0.3 to 0.5 nM, 293T membranes
Procedure: The affinity of the compounds of the present disclosure for dopamine D2 receptors was determined by a radioligand competition binding assay.
In the first step, a cell membrane component containing specific dopamine D2 receptors was prepared. A 10 cm culture dish was used for transfection with […] of dopamine D2 receptors and 40 μL of polyethylenimine (PEI hereafter). […] A vacuum pump was used to suck off the culture medium, 3 mL of lysis buffer was added to each culture dish, and the cells were placed in a 4° C. cold room for 10 minutes. After the cells were detached, the cells were transferred to a 15 mL centrifuge tube and centrifuged at 1500 rpm for 5 minutes at 4° C., and the supernatant was discarded. The cell pellet was transferred to a tissue homogenizer, and 3 mL of lysis buffer was added and fully ground until the cells were broken. Then, cell suspension was equally aliquoted into several EP tubes, centrifuged at 12000 rpm for 5 minutes at 4° C., and the supernatant was discarded. The precipitate was the cell membrane component containing the dopamine D2 receptors.
First, a standard binding buffer was added to the cell membrane component containing the dopamine D2 receptors, and the cell membrane was disrupted and resuspended with an electric tissue homogenizer. 30 μL of membrane protein suspension was added to each well of a 96-well plate. Then, 30 μL of different drugs were added to the 96-well plate sequentially from bottom to top to ensure that the final drug concentrations were 10^−5 M, 10^−6 M, 10^−7 M, 10^−8 M, 10^−9 M, and 0 M, with two replicates per treatment. Next, 30 μL of [3H]-Methylspiperone was added to each well of the 96-well plate. The plate was incubated at room temperature in the dark for 2 hours. Detection was conducted. The machine readout value reflected the amount of [3H]-Methylspiperone bound on the membrane, and after further data processing, the affinity Ki values of different compounds for the dopamine D2 receptors were obtained.

dopamine D2 receptors [2] = molecular target: T1, dopamine D2 receptors; assay: Dopamine D2 receptor β-arrestin2 BRET (recruitment); type: cell-based; details: for Emax: relative to endogenous ligand dopamine, read-out: β-arrestin2 BRET Emax % ± SEM
Procedure: (§1) To examine the downstream G-protein signaling pathway mediated by dopamine D2 receptors, on the first day, a 6 cm culture dish was used for transfection with 1 μg of dopamine D2 receptors, 1 μg of Gαi1 containing C-terminal seaweed luciferase (Gαi1-Rluc), 1 μg of Gβ3, 1 μg of Gγ9 containing C-terminal green fluorescent protein (Gγ9-GFP) mixed with 16 μL of PEI. At the same time, in order to examine the downstream β-arrestin2 signaling pathway mediated by dopamine D2 receptors, on the first day, a 6 cm culture dish was used for transfection with […] of dopamine D2 receptors containing C-terminal seaweed luciferase (D2-Rluc), […] of G protein-coupled receptor kinase 2 (GRK2), […] of β-arrestin2 containing N-terminal green fluorescent protein (GFP2-ARRB2) mixed with 14 μL of PEI. The next day, the confluent cells of a 6 cm culture dish were digested and reseeded into a 96-well plate with 100 μL of culture medium added to each well. On the third day, the drugs were added for test. The 96-well plate was taken out from the cell incubator to decant the culture medium, 40 μL of the substrate coelenterazine 400a (final concentration of 5 μM) was added to each well, and then 20 μL of different drugs were added sequentially from left to right to ensure that the final concentration of the drug decreased gradually from bottom to top, with two replicates per treatment. Finally, the prepared samples were loaded on machine for test. The machine readout value reflected the recruitment of β-arrestin2 to the membrane or the dissociation of G protein trimer. The former indicated the degree of activation of the β-arrestin2 signaling pathway downstream of the dopamine D2 receptors, and the latter indicated the degree of activation of the G protein signaling pathway downstream of the dopamine D2 receptors.

dopamine D2 receptors [3] = molecular target: T1, dopamine D2 receptors; assay: Dopamine D2 receptor Gαi1 BRET (G protein trimer dissociation); type: cell-based; details: for Emax: relative to endogenous ligand dopamine, read-out: Gαi1 BRET Emax % ± SEM
Procedure: as §1

[4] = Brain permeability test, single intraperitoneal dose in C57 male mice; type: in vivo; details: intraperitoneal 5 mg/kg
Procedure: Using the same method as that in the pharmacokinetic experiment, 0.030 mL of blood was collected from the orbit of each animal at 0.5 hours, 2.0 hours, and 4.0 hours, and anticoagulated with EDTA-K2. Blood samples were placed on ice after collection, and plasma was separated by centrifugation within 30 minutes (centrifugation conditions: 5000 rpm, 10 minutes, 4° C.). The collected plasma was stored at −80° C. before analysis. […] The homogenate was stored at −80° C. before analysis. Drug concentrations in plasma and brain tissues were analyzed by LC/MS/MS for comparison.

[5] = Pharmacokinetics in SD rats, single dose intragastric and intravenous; type: in vivo; details: male, rat, plasma; for AUC(0-t): read-out: Area under the drug-time curve AUC0-t; for half-life: read-out: Elimination half-life t1/2 (converted); for MRT: read-out: Mean residence time MRT; for Cmax: read-out: Peak drug concentration Cmax
Procedure: Testing of pharmacokinetic properties of compounds administered in a single dose to SD rats by intragastric administration and intravenous injection
After the compound was administered in a single dose to male SD rats, blood samples were collected at different time points. The concentration of the compound in the plasma of the rats was determined by LC-MS/MS and the relevant pharmacokinetic parameters were calculated to investigate the pharmacokinetics of the compound in rats.
Male SD rats were provided by Suzhou JOINN Laboratories Co., Ltd. SD rats were fasted with free access to water for 12 to 14 hours one day before administration, and were fed 4 hours after administration.
For each compound, the […] were divided into two groups: intravenous injection and intragastric administration, with 3 rats in each group. For both intravenous injection (administered at a dose of 3 mg/kg and a concentration of 0.6 mL/kg) and intragastric administration (administered at a dose of 10 mg/kg and a concentration of 1 mL/kg), 5% DMSO+5% Solutol+90% saline was used as the vehicle.
Sample collection: 0.10 mL of blood was collected from the orbit of each animal in IV/PO groups each time at 5 minutes, 15 minutes, 30 minutes, 1 hour, 2 hours, 4 hours, 6 hours, 8 hours, and 24 hours after administration of the test compound, and anticoagulated with EDTA-K2. Blood samples were placed on ice after collection, and plasma was separated by centrifugation within 30 minutes (centrifugation conditions: 5000 rpm, 10 minutes, 4° C.). The collected plasma was stored at −80° C. before analysis.
Data processing: The data acquisition and control system software was Analyst 1.5.1 software (Applied Biosystem). The peak integration method of chromatographic samples was automatic integration; the ratio of the peak area of the sample to the peak area of the internal standard was used as an index for regression with the concentration of the sample. […] Pharmacokinetic parameters were analyzed with a non-compartmental model using WinNonlin Professional v6.3 (Pharsight, USA). Cmax was the measured maximum plasma concentration, the area under the plasma concentration-time curve AUC(0→t) was calculated by the trapezoidal method, and tmax was the time to peak plasma concentration after administration. Experimental data were presented as “Mean±SD” (n≥3) or “Mean” (n=2).

[6] = unit printed only in Cariprazine cell, read-out: β-arrestin2 BRET EC50
[7] = read-out: Gαi1 BRET pEC50 ± SEM (converted)
[8] = unit printed only in Cariprazine cell, read-out: Gαi1 BRET EC50
[9] = intravenous injection, dose 10 mg/kg

T1 sequence (P14416 whole entry): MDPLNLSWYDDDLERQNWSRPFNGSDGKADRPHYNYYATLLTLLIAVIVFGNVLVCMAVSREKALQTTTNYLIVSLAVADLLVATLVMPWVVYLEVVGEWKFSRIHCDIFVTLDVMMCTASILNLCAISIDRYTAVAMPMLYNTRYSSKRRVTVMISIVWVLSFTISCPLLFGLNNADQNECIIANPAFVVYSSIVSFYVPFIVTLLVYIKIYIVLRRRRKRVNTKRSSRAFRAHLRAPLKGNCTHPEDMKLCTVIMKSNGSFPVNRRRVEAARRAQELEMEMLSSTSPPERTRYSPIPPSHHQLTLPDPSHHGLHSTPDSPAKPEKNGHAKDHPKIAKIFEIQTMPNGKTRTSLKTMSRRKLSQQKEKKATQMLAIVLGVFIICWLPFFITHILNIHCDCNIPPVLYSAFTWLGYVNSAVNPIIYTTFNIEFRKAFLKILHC

- Ki (dopamine D2 receptors [1]; read-out: Affinity Ki): 282 nM
- Ki (dopamine D2 receptors [1]; read-out: Affinity pKi ± SEM (converted)): 288 nM
- Emax (dopamine D2 receptors [2]): 90%
- EC50 (dopamine D2 receptors [2]; [6]): 0.47 nM
- EC50 (dopamine D2 receptors [3]; [7]): 13.2 nM
- Emax (dopamine D2 receptors [3]): 41%
- EC50 (dopamine D2 receptors [3]; [8]): 13 nM
Compound: COc1cccc2c3c([nH]c12)CN(CCCOc1ccc2ccc(=O)[nH]c2c1)CC3 [I-B3, 7-(3-(8-methoxy-1,3,4,9-tetrahydro-2H-pyrido[3,4-b]indol-2-yl)propoxy)quinolin-2(1H)-one]

- AUC brain ([4]; brain): 2767 ng·h/mL
- Kp at 0.5 h ([4]; male, C57, mouse, brain/plasma, ip, 0.5 h, read-out: 0.5 h ratio (brain/plasma)): 3.05
- Kp at 2 h ([4]; male, C57, mouse, brain/plasma, ip, 2.0 h, read-out: 2.0 h ratio (brain/plasma)): 2.67
- Kp at 4 h ([4]; male, C57, mouse, brain/plasma, ip, 4.0 h, read-out: 4.0 h ratio (brain/plasma)): 2.24
- Kp ([4]; male, C57, mouse, brain/plasma, ip, read-out: AUC ratio (brain/plasma)): 2.71
- concentration at 0.5 h ([4]; male, C57, mouse, 0.5 h, brain, read-out: 0.5 h brain concentration): 1030 ± 96 ng/mL
- concentration at 0.5 h ([4]; male, C57, mouse, 0.5 h, plasma, read-out: 0.5 h plasma concentration): 336 ± 28 ng/mL
- concentration at 2 h ([4]; male, C57, mouse, 2.0 h, brain, read-out: 2.0 h brain concentration): 714 ± 143 ng/mL
- concentration at 2 h ([4]; male, C57, mouse, 2.0 h, plasma, read-out: 2.0 h plasma concentration): 267 ± 47 ng/mL
- concentration at 4 h ([4]; male, C57, mouse, 4.0 h, brain, read-out: 4.0 h brain concentration): 491 ± 80 ng/mL
- concentration at 4 h ([4]; male, C57, mouse, 4.0 h, plasma, read-out: 4.0 h plasma concentration): 219 ± 15 ng/mL
- AUC ([4]; male, C57, mouse, ip, plasma): 1020 ng·h/mL
- Vd ([5]; intravenous injection, dose 10 mg/kg, read-out: Apparent volume of distribution Vdss): 4.75 ± 0.4 L/kg
- AUC(0-t) [5, 9]: 2520 ± 446 ng·h/mL
- clearance ([5]; intravenous injection, dose 10 mg/kg, read-out: Clearance CL): 20.1 ± 3.6 mL/min/kg
- half-life [5, 9]: 3.67 ± 0.1 h
- MRT [5, 9]: 3.98 ± 0.4 h
- Cmax [5, 9]: 765 ± 74 ng/mL
- AUC(0-t) ([5]; oral administration, 10 mg/kg): 10400 ± 1180 ng·h/mL
- bioavailability ([5]; oral administration, 10 mg/kg, read-out: Bioavailability F): 123 ± 14%
- half-life ([5]; oral administration, 10 mg/kg): 8.54 ± 2.3 h
- MRT ([5]; oral administration, 10 mg/kg): 11.5 ± 4.1 h
- Cmax ([5]; oral administration, 10 mg/kg): 1000 ± 195 ng/mL
- Tmax ([5]; oral administration, 10 mg/kg, read-out: Time to peak concentration tmax): 2 h
- EC50 (dopamine D2 receptors [2]; read-out: β-arrestin2 BRET pEC50 ± SEM (converted)): 195 nM
- Emax (dopamine D2 receptors [2]): 151%
- EC50 (dopamine D2 receptors [2]; [6]): 291 nM
- Emax (dopamine D2 receptors [3]): 97%
- EC50 (dopamine D2 receptors [3]; [8]): 123 nM
Compound: COc1cccc2c1cc1n2CCN(CC[C@H]2CC[C@H](NC(=O)N(C)C)CC2)C1 [I-C7, 3-(trans-4-(2-(9-methoxy-3,4-dihydropyrazino[1,2-a]indol-2(1H)-yl)ethyl)cyclohexyl)-1,1-dimethylurea]

- Affinity pKi ± SEM (dopamine D2 receptors [1]): (6.03 ± 0.07)
- Ki (dopamine D2 receptors [1]; read-out: Affinity Ki): 930 nM
- Emax (dopamine D2 receptors [2]): 21%
- EC50 (dopamine D2 receptors [2]; [6]): 8.36 nM
- EC50 (dopamine D2 receptors [3]; [7]): 10.7 nM
- Emax (dopamine D2 receptors [3]): 40%
- EC50 (dopamine D2 receptors [3]; [8]): 10.6 nM
Compound: CC(C)Oc1cccc2c3c(oc12)CN(CC[C@H]1CC[C@H](NC(=O)N(C)C)CC1)CC3 [I-A19, 3-(trans-4-(2-(8-isopropoxy-3,4-dihydrobenzofuro[2,3-c]pyridin-2(1H)-yl)ethyl)cyclohexyl)-1,1-dimethylurea]

- Affinity pKi ± SEM (dopamine D2 receptors [1]): (6.36 ± 0.28)
- Ki (dopamine D2 receptors [1]; read-out: Affinity Ki): 438 nM
- Emax (dopamine D2 receptors [2]): 127%
- EC50 (dopamine D2 receptors [2]; [6]): 20.8 nM
- EC50 (dopamine D2 receptors [3]; [7]): 97.7 nM
- Emax (dopamine D2 receptors [3]): 64%
- EC50 (dopamine D2 receptors [3]; [8]): 96.5 nM
Compound: COc1cccc2c1cc1n2CCN(C/C=C/COc2ccc3ccc(=O)[nH]c3c2)C1 [I-C5, (E)-7-((4-(9-methoxy-3,4-dihydropyrazino[1,2-a]indol-2(1H)-yl)but-2-en-1-yl)oxy)quinolin-2(1H)-one]
